Experimental findings from article PMC10967427, “Polylactic Glycolic Acid-Mediated Delivery of Plectasin Derivative NZ2114 in Staphylococcus epidermidis Biofilms” (Antibiotics, 2024) are described below.

The test system of this assay is S. epidermidis G4 biofilm persister. Briefly: Effect on biofilm persisters, colony counting. Format: cell-based, Staphylococcus epidermidis. The settings on record: vancomycin 100× MIC, 24 h, induction of persisters. The procedure:
The antibacterial effect of NZ2114 nanoparticles on the persistent bacteria in the biofilm was determined according to the previous study.

Consider `CN[C@H](CC(C)C)C(=O)N[C@H]1C(=O)N[C@@H](CC(N)=O)C(=O)N[C@H]2C(=O)N[C@H]3C(=O)N[C@H](C(=O)N[C@H](C(=O)O)c4cc(O)cc(O)c4-c4cc3ccc4O)[C@H](O)c3ccc(c(Cl)c3)Oc3cc2cc(c3O[C@@H]2O[C@H](CO)[C@@H](O)[C@H](O)[C@H]2O[C@H]2C[C@](C)(N)[C@H](O)[C@H](C)O2)Oc2ccc(cc2Cl)[C@H]1O` [vancomycin], for which the “Number of viable bacteria in the biofilm after vancomycin” value is recorded as 5.3 × 10^6 CFU/mL.
